The values below come from US11826333B2, “Bactericidal debridement compositions for surgical site infections and chronic wound healing” (DePuy Synthes Products, Inc., priority 2020, dated 2023).

≈ marks a conversion by molar mass, not a printed value.

The subject of one test is planktonic S. aureus. The experiment in a line: CDA effect on planktonic bacteria (visual MIC test and follow-up plating). It counts as cell-based. The text has this: As an additional test, several different CDA concentrations (800 ppm, 400 ppm, 200 ppm, 100 ppm, 50 ppm, 25 ppm, 12.5 ppm, and 6.25 ppm) were placed in vials including planktonic S. aureus. The vials can be seen in FIG. 3A. Two controls are on the right and unlabeled (bacteria/no fatty acid and no fatty acid/no bacteria, respectively). […] This test was qualitative and was based on whether there was observable bacteria in the test vials. In FIG. 3A, it can be seen that only the test vial containing 800 ppm CDA contains clear fluid, while the other tubes are all cloudy indicating active presence of bacteria.
Thus, even at an MIC of 800 ppm, CDA was not shown to be bactericidal but rather bacteriostatic with respect to planktonic bacteria.

In test [1] the test system is mature biofilms of S. aureus (ATCC 25923). The experiment in a line: CDA dispersant effect on mature biofilms. It counts as cell-based. The following applies: CDA ~0.05 ppm, 310 nM. On the procedure:
(§1) In the following examples, unless otherwise noted, testing was conducted on mature biofilms of S. aureus (ATCC 25923) that were grown for 48 hours. An exemplary preparation of the biofilm is as follows: • Prepare an overnight bacterial inoculum of S. aureus at a concentration of 10^9 CFU/mL in 20 mL in commercial Tryptic Soy Broth (TSB) by incubating at 37° C. shaker at 250 rpm; • Take an OD600 reading of a diluted stock of overnight culture to determine stock concentration with the absorbance method; • Adjust the concentration of bacteria to 10^5 CFU/mL using 0.3% (w/v) TSB forcibly aspirating up and down to break up clumps of colonies with a serological pipette from the stock concentration; • Plate the following dilutions in triplicates on TSA-L plates to determine the initial stock concentration of cells: 10^2 CFU/mL; • Add 7 mL of inoculum into each 15 ml tube containing K-wire using a serological pipette, making sure to again forcibly aspirate up and down prior to addition; • Place the tubes on the revolver at 30° C.; • After 8 hours, unscrew the caps and transfer the caps with sutures to a new tube with 7 mL of 0.3% TSB and incubate in the shaker-incubator for an additional 44 hours to grow the biofilm at 40 RPM growing; • During this time, change the media 2 times per day by unscrewing the cap and transferring to a new tube with 7 mL TSB.

Test [2] concerns S. aureus (ATCC 25923) biofilms grown for 48 hrs. The experiment in a line: CDA dose response on mature biofilms (Example 1). The following applies: CDA at 200 ppm or greater in 5% DMSO; 24 hours exposure; 48 h biofilm. The class given is cell-based. On the procedure:
as §1, with “TSB. […]” for “TSB.”

In test [3] the test system is S. aureus (ATC 25923) biofilm grown for 48 hours on K-wires. The test can be described thus: 1 hour CDA/cefazolin exposure of debrided or full biofilm on K-wires (Example 3). It counts as cell-based. The following applies: debrided biofilm; for Avg. Log CFU, K-Wire Testing / Avg. Log CFU, Well Testing: 21° C.; for Reduction (log CFU), K-Wire Testing / Reduction (log CFU), Well Testing: vs debrided biofilm control. On the procedure: The goal of this study was to determine whether the combination of CDA and Cefazolin can act quickly on a debrided contaminated wound site with an adjuvant killing effect of CDA and a therapeutic drug concentration. The biofilm was grown at 30° C. and the same 0.3% (w/v) media used in previous studies was used in this study. The biofilm was grown for 48 hours, then underwent a mechanical “debridement” process. This debridement was done to simulate the debridement of an infected wound site. After the physical removal of visual biofilm, the K-wires were exposed to 400 ppm CDA, 10 ppm cefazolin, or a combination of both, for one hour (in contrast to the previous studies where exposure was for 24 hrs). Separately, a test was conducted on an untreated biofilm (i.e., not debrided) using a higher concentration of CDA, approximately 800 ppm. This concentration of CDA was determined to be the MIC value for ATC 25923 planktonic cells as noted above in the previous example.
The contents of the wells and bacteria on the K-wires were diluted and plated to determine CFU/mL. Briefly, the K-wires were secured to tube caps and placed in tubes incubated with an initial inoculum concentration (10^5 CFU/mL) and grown for 24-48 hours. Media was changed roughly every 8 hours. After growth, the biofilms were exposed to a combination of CDA and cefazolin for 60 minutes.
After exposure time was completed, both the well samples and the debrided K-wires were treated, and the remaining bacteria cells were plated and counted. For the media in the wells, samples were centrifuged for 10 minutes at 3000 rpm and the supernatant was removed. The cells were resuspended in 10 mL 1×PBS buffer. This washing step was repeated for a second time and the cells resuspended again in a final volume of 1.5 mL neutralizing buffer, diluted and plated on Tryptic Soy Agar with Lectin (TSA-L) agar plates. For the K-wires, the caps securing the K-wires in the tubes were removed and transferred to tubes with 10 mL 1×PBS and the tubes were inverted. The cap with the K-wires were transferred again to another tube with PBS and the step was repeated. After washing the K-wires 2×, they were transferred to tubes with neutralizing buffer and vortexed followed by ultra-sonication for 10 minutes. The cells were then diluted and plated on TAS-L agar plates.
Prepare an overnight bacterial inoculum of S. aureus at a concentration of 10^9 CFU/mL in 20 mL in commercial TSB by incubating at 37° C. shaker at 250 rpm.
Adjust the concentration of bacteria to 10^5 CFU/mL using 0.3% (w/v) TSB making sure to forcibly aspirate up and down to break up clumps of colonies with a serological pipette from the stock concentration.
Add 7 mL of inoculum into each 15 ml tube containing K-wire using a serological pipette, making sure to again forcibly aspirate up and down prior to addition.
After 8 hours, unscrew the caps and transfer the caps with sutures to a new tube with 7 mL of 0.3% TSB and incubate in the shaker-incubator for an additional 44 hours to grow the biofilm at 40 RPM growing.
During this time, change the media 2× per day by unscrewing the cap and transferring to a new tube with 7 mL TSB. After 48 hours of growth, proceed with debridement of the biofilm and exposure.
Transfer the K-wires in new tubes containing 10 mL of 1×PBS, invert it two times and repeat the same step with one more PBS wash by inverting 2 times for a total of 2 washes.
Transfer caps with debrided biofilm to a new tube containing 10 mL of 0.1% TSB with DMSO only.
Transfer caps with debrided biofilm to a new tube containing 10 mL of 0.1% TSB+400 ppm concentration of CDA+5% DMSO.
Transfer caps with debrided biofilm to a new tube containing 10 mL of 0.1% TSB+10 ppm concentration of cefazolin.
Transfer caps with debrided biofilm to a new tube containing 10 mL of 0.1% TSB+10 ppm concentration of cefazolin+400 ppm CDA+5% DMSO. […]

The next test has as its system MRSA. Conditions: literature, Jennings et al. 2012; cited from earlier work.
In the next test the test system is biofilms. The following applies: literature, Davies & Marques 2009; cited from earlier work.
Test [4] relates to P. aeruginosa, E. coli, K pneumoniae, Proteus mirabilis, Streptococcus pyogenes, B. subtilis, S. aureus, and the yeast C. albicans. Conditions: literature, Rabin et al. 2015; many species of bacteria and across kingdom; cited from earlier work.
Test [5] relates to mature biofilms of S. aureus (ATCC 25923) grown for 48 hours on K-wires. The experiment in a line: CDA + antibiotics on K-wires having mature biofilms (Example 2). It counts as cell-based. The following applies: 400 ppm CDA adjuvant in combination with the named antibiotic; 48 h biofilm. On the procedure: as §1
New K-wires were roughened with #600 sandpaper (˜10× along the length) followed by rinsing with deionized water. The rinsed K-wires were then completely immersed in a 10% citric acid (w/v) bath at ˜49° C. for 20 minutes to passivate the surface of the stainless steel to prevent subsequent corrosion. After removal from the bath, the K-wires were then rinsed with deionized water. The K-wires were then washed and sterilized by autoclaving.
K-wires were secured to tube caps and placed in tubes incubated with an initial inoculum concentration (10^5 CFU/mL) and grown for 24-48 hours. Media was changed roughly every 8 hours. After growth, the inoculated K-wires were ready for testing.
After exposure time is completed, both the well samples and the debrided K-wires are treated, and remaining bacteria cells are plated and counted. For the media in the wells, samples are centrifuged for 10 minutes at 3000 rpm and the supernatant is removed. The cells are resuspended in 10 mL 1×PBS buffer. This washing step is repeated for a 2nd time and the cells resuspended again in a final volume of 1.5 mL neutralizing buffer, diluted and plated on Tryptic Soy Agar with Lectin (TSA-L) agar plates. For the K-wires, the caps securing the K-wires in the tubes are removed and transferred to tubes with 10 mL 1×PBS and the tubes are inverted. The caps with the K-wires are transferred again to another tube with PBS and the step repeated. After washing the K-wires 2 times, they are transferred to tubes with neutralizing buffer and vortexed followed by ultra-sonication for 10 minutes. The cells are then diluted and plated on TSA-L agar plates.
Following growth, biofilms were washed and treated with the fatty acid and/or antimicrobials to determine dose-response and adjuvant effects. After this time, the wells of the samples were diluted and plated to determine dispersion levels compared to controls. The K-wires were washed, sonicated to remove any residual cells, and the samples were plated to determine CFU/mL.

The test system of a further test is Staphylococcus aureus. The following applies: literature, Stenz et al.; by inhibiting bacterial adhesion; cited from earlier work.
In another test the test system is Xanthomonas campestris. Conditions: literature, Dow et al. 2003; cited from earlier work.
Test [6] concerns mature biofilms of S. aureus (ATCC 25923). The test can be described thus: Systemic gentamicin testing on mature biofilms. The following applies: approximately 10 ppm (10 mcg/ml) gentamicin; data not shown. It counts as cell-based. On the procedure:
as §1, with “TSB. […]” for “TSB.”

Turning to `CCCCCCC/C=C\C(=O)O` [CDA, cis-2-decenoic acid], the “growth in the tube” value with planktonic S. aureus (400 ppm CDA, planktonic S. aureus) is recorded as “visible growth”. Also, the bacteriostatic or bactericidal result in the test on planktonic S. aureus (800 ppm CDA, 10 μL plated on TSA-L agar after 24 hours incubation) is “bacteriostatic, not bactericidal”. Further, the MIC in the test with planktonic S. aureus (Staphylococcus aureus, planktonic cells, qualitative, clear vs cloudy vials, read-out: minimum inhibitory concentration (MIC)) stood at 800 mg/L (≈ 4.7 mM). Moreover, the dispersion of biofilm entry in test [1] was “no observed dispersion”. Further, in test [2], the “log reduction in CFU” value is given as “greater than 4 log”. Further, in [3] (400 ppm CDA + 5% DMSO), the “Avg. Log CFU, K-Wire Testing” value turned out to be 7.8 Log CFU; the “Avg. Log CFU, Well Testing” value is 5.6 Log CFU; the “Reduction (log CFU), K-Wire Testing” value came to 1.6; the “Reduction (log CFU), Well Testing” value was 0.6. Besides, in the test with MRSA, the “concentration that inhibited biofilm formation” value is 125 ppm and the “concentration that inhibited the growth of MRSA” value is reported as not below 500 ppm. In the test on biofilms, the “lowest concentration able to disperse biofilms” value is recorded as “about 2.5 nM”. Also, the “effect on established biofilms” value in test [4] was “disperse established biofilms”.

Take `Cc1nnc(SCC2=C(C(=O)O)N3C(=O)[C@@H](NC(=O)Cn4cnnn4)[C@H]3SC2)s1` [Cef, cefazolin]: in [5], the “log reduction of bacteria in the wells” value is 7.8 log and the “log reduction of bacteria on the medical device (K-wires)” value (“log reduction of bacteria … (K-wires)” for short) came out at 5.9 log. In addition, in test [3] (10 ppm cefazolin), the “Avg. Log CFU, K-Wire Testing” value was 8.5 Log CFU; the “Avg. Log CFU, Well Testing” value was found to be 5.4 Log CFU; the “Reduction (log CFU), K-Wire Testing” value was 0.9; the “Reduction (log CFU), Well Testing” value turned out to be 0.8.

Turning to `CCCCCCCC/C=C\CCCCCCCC(=O)O` [Oleic acid, cis-9-octadecanoic acid], the “effect on biofilm formation” value in the test on Staphylococcus aureus is “repress biofilm formation”.

Turning to `CC(C)CCCCCCC/C=C\C(=O)O` [cis-11-methyl-2-dodecenoic acid], the “effect on cell flocs” value with Xanthomonas campestris is recorded as “disaggregate cell flocs”.

As to `CN[C@H](CC(C)C)C(=O)N[C@H]1C(=O)N[C@@H](CC(N)=O)C(=O)N[C@H]2C(=O)N[C@H]3C(=O)N[C@H](C(=O)N[C@H](C(=O)O)c4cc(O)cc(O)c4-c4cc3ccc4O)[C@H](O)c3ccc(c(Cl)c3)Oc3cc2cc(c3O[C@@H]2O[C@H](CO)[C@@H](O)[C@H](O)[C@H]2O[C@H]2C[C@](C)(N)[C@H](O)[C@H](C)O2)Oc2ccc(cc2Cl)[C@H]1O` [vancomycin], in [5], the “log reduction of bacteria in the wells” value was determined as 5.3 log and the “log reduction of bacteria … (K-wires)” value is recorded as 4.7 log.

For gentamicin, the “response of mature biofilms to gentamicin doses” value in test [6] is “resistant”. Besides, in test [5], the “log reduction of bacteria in the wells” value stood at 6.3 log and the “log reduction of bacteria … (K-wires)” value is 4.9 log.
